Experimental findings from ChEMBL document CHEMBL1154679, “Synthesis and biological evaluation of coumarin-based inhibitors of NAD(P)H: quinone oxidoreductase-1 (NQO1)” (J Med Chem, 2009) are described below.

The structures appear in SMILES notation. Where only a bound is given, the exact number is not on record here.

In test [1] the target is T1, NAD(P)H dehydrogenase [quinone] 1 (Homo sapiens, UniProt P15559).
Description: Inhibition of human recombinant NQO1
Test [2] has as its target T1, NAD(P)H dehydrogenase [quinone] 1. The source holds these as a separate data set.
Description: Inhibition of human recombinant NQO1 in presence of BSA
The test system of test [3] is MIA PaCa-2. Kind of test: Cytotoxicity against human MIAPaCa2 cells assessed as reduction in cell number after 96 hrs by MTT assay. To be noted: MIA PaCa-2, 96 h. It counts as functional, cell-based.
In test [4] the test system is HCT-116. Kind of test: Cytotoxicity against human HCT116 cells assessed as reduction in cell number after 24 hrs by MTT assay. Particulars: HCT-116, 24 h. It counts as functional, cell-based.
In test [5] the test system is HCT-116. Kind of test: Cytotoxicity against human HCT116 cells assessed as reduction in cell number after 96 hrs by MTT assay. It counts as functional, cell-based. Particulars: HCT-116, 96 h.
The subject of test [6] is MIA PaCa-2. Description: Cytotoxicity against human MIAPaCa2 cells assessed as reduction in cell number after 24 hrs by MTT assay. It counts as functional, cell-based. Particulars: MIA PaCa-2, 24 h.

T1 sequence (P15559 whole entry): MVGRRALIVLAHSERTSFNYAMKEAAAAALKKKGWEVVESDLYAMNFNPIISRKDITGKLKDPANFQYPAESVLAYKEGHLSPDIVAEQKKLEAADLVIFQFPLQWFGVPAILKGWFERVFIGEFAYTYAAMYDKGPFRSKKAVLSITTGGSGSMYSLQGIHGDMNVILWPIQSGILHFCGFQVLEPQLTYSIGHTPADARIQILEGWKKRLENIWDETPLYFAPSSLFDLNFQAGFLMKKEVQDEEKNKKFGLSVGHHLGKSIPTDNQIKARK

`CCCC(c1c(O)c2ccccc2oc1=O)c1c(O)c2ccccc2oc1=O`: the half-inhibitory concentration (IC50) in test [1] turned out to be 0.588 µM; in test [2], 5.32 µM.
As for `Cc1cc2oc(=O)c(Cc3cccc4ccccc34)c(O)c2cc1C`, the half-inhibitory concentration (IC50) with MIA PaCa-2 [3] was 188 µM; in the test on HCT-116 [4] it was 160 µM; in the test with HCT-116 [5] it was 56 µM; with MIA PaCa-2 [6] it was > 400 µM.
For the molecule `Cc1ccc2oc(=O)c(Cc3c(O)c4cc(C)ccc4oc3=O)c(O)c2c1`, the IC50 turned out to be 0.014 µM in test [1] and 5.5 µM in test [2].
In the case of `COc1ccc2c(O)c(Cc3c(O)c4ccc(OC)cc4oc3=O)c(=O)oc2c1`, the IC50 in the test with MIA PaCa-2 [3] was 303 µM; in the test on HCT-116 [4], > 400 µM; with HCT-116 [5], 187 µM; in the test with MIA PaCa-2 [6], 448 µM.
The matching figures for `Cc1ccc2c(O)c(Cc3c(O)c4ccc(C)c(C)c4oc3=O)c(=O)oc2c1C`: 119 µM, 178 µM, 35 µM and 359 µM.
The matching figures for `COc1cc2oc(=O)c(Cc3c(O)c4cc(OC)c(OC)cc4oc3=O)c(O)c2cc1OC`: > 400 µM, > 400 µM, > 400 µM and > 400 µM.
Take `Cc1cc2oc(=O)c(Cc3ccc4ccccc4c3)c(O)c2cc1C`: the 50% inhibitory concentration (IC50) in the test with MIA PaCa-2 [3] worked out at 162 µM; in the test with HCT-116 [4] it was 208 µM; in the test on HCT-116 [5], 180 µM; in the test on MIA PaCa-2 [6], 390 µM.
The matching figures for `Cc1cc2oc(=O)c(Cc3c(O)c4cc(C)c(C)cc4oc3=O)c(O)c2cc1C`: 106 µM, 201 µM, 35 µM and 213 µM.
As to `Cc1ccc(Cc2c(O)c3cc(C)c(C)cc3oc2=O)cc1C`, the half-inhibitory concentration (IC50) in the test with MIA PaCa-2 [3] is 407 µM; in the test on HCT-116 [4], > 400 µM; in the test on HCT-116 [5], 176 µM; with MIA PaCa-2 [6] it was > 400 µM.
`COc1cccc2oc(=O)c(Cc3c(O)c4c(OC)cccc4oc3=O)c(O)c12`: the half-maximal inhibitory concentration (IC50) is 350 µM with MIA PaCa-2 [3], > 400 µM in the test on HCT-116 [4], 80 µM in the test with HCT-116 [5] and 390 µM in the test with MIA PaCa-2 [6].
`O=c1oc2ccc(Cl)cc2c(O)c1Cc1c(O)c2cc(Cl)ccc2oc1=O`: the 50% inhibitory concentration (IC50) turned out to be 0.009 µM in test [1] and 6.25 µM in test [2].
Take `Cc1cc2oc(=O)c(Cc3ccccc3)c(O)c2cc1C`: the half-inhibitory concentration (IC50) with MIA PaCa-2 [3] was 267 µM; with HCT-116 [4] it was > 400 µM; in the test with HCT-116 [5], 178 µM; in the test on MIA PaCa-2 [6], > 400 µM.
Consider `O=c1oc2ccccc2c(O)c1Cc1ccccc1`, for which the values for the IC50 in test [1] and in test [2] were 0.144 µM and 3.2 µM, respectively.
`COc1ccc2oc(=O)c(Cc3c(O)c4cc(OC)ccc4oc3=O)c(O)c2c1`: the IC50 with MIA PaCa-2 [3] turned out to be 405 µM; in test [1] it was 0.011 µM; with HCT-116 [4] it was 196 µM; in test [2], 3.3 µM; in the test on HCT-116 [5], 48 µM; in the test with MIA PaCa-2 [6], 300 µM.
In the case of `O=c1oc2ccccc2c(O)c1Cc1c(O)c2ccccc2oc1=O` [DICUMAROL], the 50% inhibitory concentration (IC50) in the test with MIA PaCa-2 [3] is 52 µM; with HCT-116 [4] it was 103 µM; in the test with HCT-116 [5], 19 µM; in the test with MIA PaCa-2 [6], 90 µM.
